Source: US20090099167A1, “Organic compounds” (Novartis Institutes for Biomedical Research, priority 2004, published 2009)

target: T1, human EphB4 (Homo sapiens, UniProt P54760); assay: Cellular assay EphB4 receptor autophosphorylation, transfected A375 cells, sandwich ELISA; assay type: cell-based; conditions: inhibition of autophosphorylation of EphB4 kinase, Table 6
T1 construct: expressed in transfected cells; host or cells: A375 human melanoma cells (ATCC CRL-1619)
T1 sequence (P54760 16-987): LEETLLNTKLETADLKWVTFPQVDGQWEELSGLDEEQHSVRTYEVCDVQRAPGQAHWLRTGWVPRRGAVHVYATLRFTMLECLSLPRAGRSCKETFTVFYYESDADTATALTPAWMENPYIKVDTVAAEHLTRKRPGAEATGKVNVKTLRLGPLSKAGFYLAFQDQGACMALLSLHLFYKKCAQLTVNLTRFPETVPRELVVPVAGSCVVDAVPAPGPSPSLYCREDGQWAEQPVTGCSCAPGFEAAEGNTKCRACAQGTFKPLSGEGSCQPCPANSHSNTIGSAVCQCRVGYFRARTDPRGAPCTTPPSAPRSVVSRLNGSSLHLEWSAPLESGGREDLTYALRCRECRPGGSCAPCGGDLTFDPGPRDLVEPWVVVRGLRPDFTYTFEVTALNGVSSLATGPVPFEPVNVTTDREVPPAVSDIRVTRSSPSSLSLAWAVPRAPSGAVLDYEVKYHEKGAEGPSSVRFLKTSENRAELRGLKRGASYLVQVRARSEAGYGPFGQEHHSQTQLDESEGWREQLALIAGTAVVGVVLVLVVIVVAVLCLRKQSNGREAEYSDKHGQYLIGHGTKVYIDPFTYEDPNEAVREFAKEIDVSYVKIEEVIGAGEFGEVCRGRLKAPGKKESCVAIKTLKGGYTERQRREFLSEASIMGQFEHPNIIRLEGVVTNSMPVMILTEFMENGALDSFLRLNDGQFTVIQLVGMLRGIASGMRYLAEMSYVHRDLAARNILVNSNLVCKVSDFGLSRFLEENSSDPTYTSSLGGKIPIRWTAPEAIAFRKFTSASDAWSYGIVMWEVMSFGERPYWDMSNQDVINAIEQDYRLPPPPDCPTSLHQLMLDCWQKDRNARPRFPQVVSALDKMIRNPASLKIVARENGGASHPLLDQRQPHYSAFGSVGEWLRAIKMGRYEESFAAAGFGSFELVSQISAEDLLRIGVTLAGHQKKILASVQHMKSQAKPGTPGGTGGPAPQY
Method: The inhibition of EphB4 receptor autophosphorylation can be confirmed with an in vitro experiment in cells such as transfected A375 human melanoma cells (ATCC Number: CRL-1619), which permanently express human EphB4 (SwissProt AccNo P54760), are seeded in complete culture medium (with 10% fetal calf serum=FCS) in 6-well cell-culture plates and incubated at 37° C. under 5% CO2 until they show about 90% confluency. The compounds to be tested are then diluted in culture medium (without FCS, with 0.1% bovine serum albumin) and added to the cells. (Controls comprise medium without test compounds). Ligand induced autophosphorylation is induced by the addition of 1 microg/ml soluble ephrinB2-Fc (s-ephrinB2-Fc: R&D Biosystems, CatNr 496-EB) and 0.1 microM ortho-vanadate. After a further 20 minutes incubation at 37° C., the cells are washed twice with ice-cold PBS (phosphate-buffered saline) and immediately lysed in 200 μl lysis buffer per well. The lysates are then centrifuged to remove the cell nuclei, and the protein concentrations of the supernatants are determined using a commercial protein assay (PIERCE). The lysates can then either be immediately used or, if necessary, stored at −20° C.
A sandwich ELISA is carried out to measure the EphB4 phosphorylation: To capture phosphorylated EphB4 protein 100 ng/well of ephrinB2-Fc (s-ephrinB2-Fc: R&D Biosystems, CatNr 496-EB) is immobilized MaxiSorb (Nunc) ELISA plates. The plates are then washed and the remaining free protein-binding sites are saturated with 3% TopBlock® (Juro, Cat. # TB232010) in phosphate buffered saline with Tween 20° (polyoxyethylen(20)sorbitane monolaurate, ICI/Uniquema) (PBST). The cell lysates (100 μg protein per well) are then incubated in these plates for 1 h at room temperature. After washing the wells three times with PBS an antiphosphotyrosine antibody coupled with alkaline phosphatase (PY 20 Alkaline Phosphate conjugated: ZYMED, Cat Nr03-7722) is added and incubated for another hour. […] The difference between the signal of the positive control (stimulated with vanadate and s-ephrinB2-Fc) and that of the negative control (not stimulated) corresponds to maximal EphB4 phosphorylation (=100%). The activity of the tested substances is calculated as percent inhibition of maximal EphB4 phosphorylation, wherein the concentration of substance that induces half the maximum inhibition is defined as the IC50 (inhibitory dose for 50% inhibition). […] The mice are treated with the test compound (e.g. 25, 50 or 100 mg/kg p.o. once daily) or vehicle starting on the day of implantation of the chamber and continuing for 4 days after. At the end of the treatment, the mice are killed, and the chambers are removed. The vascularized tissue growing around the chamber is carefully removed and weighed, and the blood content is assessed by measuring the hemoglobin content of the tissue (Drabkins method; Sigma, Deisenhofen, Germany). It has been shown previously that these growth factors induce dose-dependent increases in weight and blood content of this tissue growing (characterized histologically to contain fibroblasts and small blood vessels) around the chambers and that this response is blocked by antibodies that specifically neutralize VEGF (see Wood J M et al., Cancer Res. 60(8), 2178-2189, (2000); and Schlaeppi et al., J. Cancer Res. Clin. Oncol. 125, 336-342, (1999)). With this model, inhibition can be shown in the case of compounds of the formula (I).

Structure (SMILES)	IC50
Cc1nc2c(-c3cccc(N4CCN(C)CC4)c3)cnn2c(N)c1-c1ccc(F)cc1 [Example 80, 6-(4-Fluoro-phenyl)-5-methyl-3-[3-(4-methyl-piperazin-1-yl)-phenyl]-pyrazolo[1,5-a]pyrimidin-7-ylamine]	< 1000 nM
Cc1nc2c(-c3ccc(N4CCN(C)CC4)cc3)cnn2c(N)c1-c1ccc(F)c(Cl)c1 [Example 83, 6-(3-Chloro-4-fluoro-phenyl)-5-methyl-3-[4-(4-methyl-piperazin-1-yl)-phenyl]-pyrazolo[1,5-a]pyrimidin-7-ylamine]	< 1000 nM
COc1ccc(-c2cnn3c(N)c(-c4cccc(Cl)c4)c(C)nc23)cc1OC [Example 93, 6-(3-Chloro-phenyl)-3-(3,4-dimethoxy-phenyl)-5-methyl-pyrazolo[1,5-a]pyrimidin-7-ylamine]	< 1000 nM

Further lines, results first:

IC50	Structure (SMILES)
< 1000 nM	Cc1nc2c(-c3cccc(N4CCN(CCO)CC4)c3)cnn2c(N)c1-c1cccc(Cl)c1 [Example 90, 2-(4-{3-[7-Amino-6-(3-chloro-phenyl)-5-methyl-pyrazolo[1,5-a]pyrimidin-3-yl]-phenyl}-piperazin-1-yl)-ethanol]
< 1000 nM	Cc1nc2c(-c3cccc(N4CCN(CCO)CC4)c3)cnn2c(N)c1-c1ccc(F)c(Cl)c1 [Example 100, 2-(4-{3-[7-Amino-6-(3-chloro-4-fluoro-phenyl)-5-methyl-pyrazolo[1,5-a]pyrimidin-3-yl]-phenyl}-piperazin-1-yl)-ethanol]
